Residues, ends and D or L forms follow the SMILES beside them.
system: normal human epidermal keratinocytes (NHEKs); assay: LDH release cytotoxicity assay in keratinocytes; format: cell-based; conditions: minimal concentration giving 50% LDH release by NHEKs
Source text: Since LL-34 was the minimal truncation mutant of LL-37 that retained both antimicrobial and immune modulatory activity, we prepared a series of synthetic peptides with sequential substitutions of alanine at each amino acid position of the LL-34 parent peptide (Table 1). We compared the minimum inhibitory concentration (MIC) for the LL-34 parent peptide and the alanine mutants (LL-34 peptides—L1A and R34A) against methicillin-resistant Staphylococcus aureus strain USA300 (Fig. 1A). LL-34 peptides were incubated at concentrations of 0 to 100 μM with bacteria. The minimal concentration at which no growth was observed was noted after 18 h of incubation. […] Because of these changes in the MIC against S. aureus between the mutants, we investigated the effective toxicity profile of the peptides in normal human epidermal keratinocytes (NHEKs) by lactate dehydrogenase (LDH) release assay (Table 1). […] Most other peptides were cytotoxic at a minimal concentration of 10 μM, whereas LL-34—K15A was toxic at a concentration of 2.5 μM.
LDH cytotoxicity assay was performed according to manufacturer's instructions (Thermo Fisher Scientific). Culture supernatants from keratinocytes were used fresh for LDH assay after experimental treatments.

| SMILES | Minimal cytotoxic concentration in NHEK (LD50) |
| --- | --- |
| CC[C@H](C)[C@H](NC(=O)[C@H](CCCCN)NC(=O)[C@H](CCC(=O)O)NC(=O)[C@H](C)NC(=O)[C@H](CO)NC(=O)[C@H](CCCCN)NC(=O)[C@H](CCCNC(=N)N)NC(=O)[C@H](Cc1ccccc1)NC(=O)[C@H](Cc1ccccc1)NC(=O)[C@H](CC(=O)O)NC(=O)CNC(=O)[C@H](CC(C)C)NC(=O)[C@@H](N)CC(C)C)C(=O)NCC(=O)N[C@@H](CCCCN)C(=O)N[C@@H](CCC(=O)O)C(=O)N[C@@H](Cc1ccccc1)C(=O)N[C@@H](CCCCN)C(=O)N[C@@H](CCCNC(=N)N)C(=O)N[C@H](C(=O)N[C@H](C(=O)N[C@@H](CCC(N)=O)C(=O)N[C@@H](CCCNC(=N)N)C(=O)N[C@H](C(=O)N[C@@H](CCCCN)C(=O)N[C@@H](CC(=O)O)C(=O)N[C@@H](Cc1ccccc1)C(=O)N[C@@H](CC(C)C)C(=O)N[C@@H](CCCNC(=N)N)C(=O)N[C@@H](CC(N)=O)C(=O)N[C@@H](CC(C)C)C(=O)N[C@H](C(=O)N1CCC[C@H]1C(=O)N[C@@H](CCCNC(=N)N)C(=O)O)C(C)C)[C@@H](C)CC)C(C)C)[C@@H](C)CC [LL-34—K10A] (H-LLGDFFRKSAEKIGKEFKRIVQRIKDFLRNLVPR-OH; N-terminus and C-terminus assumed) | 5 µM |
| CC[C@H](C)[C@H](NC(=O)[C@H](CCCCN)NC(=O)[C@H](CCC(=O)O)NC(=O)[C@H](CCCCN)NC(=O)[C@H](CO)NC(=O)[C@H](CCCCN)NC(=O)[C@H](CCCNC(=N)N)NC(=O)[C@H](Cc1ccccc1)NC(=O)[C@H](Cc1ccccc1)NC(=O)[C@H](CC(=O)O)NC(=O)CNC(=O)[C@H](CC(C)C)NC(=O)[C@@H](N)CC(C)C)C(=O)NCC(=O)N[C@@H](C)C(=O)N[C@@H](CCC(=O)O)C(=O)N[C@@H](Cc1ccccc1)C(=O)N[C@@H](CCCCN)C(=O)N[C@@H](CCCNC(=N)N)C(=O)N[C@H](C(=O)N[C@H](C(=O)N[C@@H](CCC(N)=O)C(=O)N[C@@H](CCCNC(=N)N)C(=O)N[C@H](C(=O)N[C@@H](CCCCN)C(=O)N[C@@H](CC(=O)O)C(=O)N[C@@H](Cc1ccccc1)C(=O)N[C@@H](CC(C)C)C(=O)N[C@@H](CCCNC(=N)N)C(=O)N[C@@H](CC(N)=O)C(=O)N[C@@H](CC(C)C)C(=O)N[C@H](C(=O)N1CCC[C@H]1C(=O)N[C@@H](CCCNC(=N)N)C(=O)O)C(C)C)[C@@H](C)CC)C(C)C)[C@@H](C)CC [LL-34—K15A] (H-LLGDFFRKSKEKIGAEFKRIVQRIKDFLRNLVPR-OH; N-terminus and C-terminus assumed) | 2.5 µM |
| CC[C@H](C)[C@H](NC(=O)[C@H](CCCCN)NC(=O)[C@H](CCC(=O)O)NC(=O)[C@H](CCCCN)NC(=O)[C@H](CO)NC(=O)[C@H](CCCCN)NC(=O)[C@H](CCCNC(=N)N)NC(=O)[C@H](Cc1ccccc1)NC(=O)[C@H](Cc1ccccc1)NC(=O)[C@H](CC(=O)O)NC(=O)CNC(=O)[C@H](CC(C)C)NC(=O)[C@@H](N)CC(C)C)C(=O)NCC(=O)N[C@@H](CCCCN)C(=O)N[C@@H](CCC(=O)O)C(=O)N[C@@H](Cc1ccccc1)C(=O)N[C@@H](C)C(=O)N[C@@H](CCCNC(=N)N)C(=O)N[C@H](C(=O)N[C@H](C(=O)N[C@@H](CCC(N)=O)C(=O)N[C@@H](CCCNC(=N)N)C(=O)N[C@H](C(=O)N[C@@H](CCCCN)C(=O)N[C@@H](CC(=O)O)C(=O)N[C@@H](Cc1ccccc1)C(=O)N[C@@H](CC(C)C)C(=O)N[C@@H](CCCNC(=N)N)C(=O)N[C@@H](CC(N)=O)C(=O)N[C@@H](CC(C)C)C(=O)N[C@H](C(=O)N1CCC[C@H]1C(=O)N[C@@H](CCCNC(=N)N)C(=O)O)C(C)C)[C@@H](C)CC)C(C)C)[C@@H](C)CC [LL-34—K18A] (H-LLGDFFRKSKEKIGKEFARIVQRIKDFLRNLVPR-OH; N-terminus and C-terminus assumed) | 10 µM |

From paper PMC8214221, “Sequence determinants in the cathelicidin LL-37 that promote inflammation via presentation of RNA to scavenger receptors” (The Journal of Biological Chemistry, 2021)
